Each structure is given as a SMILES string.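 Dose response: 5 concentrations. Exposure: 48 h. Format: 96-well plates. Endpoint: linear interpolation; highest concentration if not reached. Definition used: TGI = concentration required for complete inhibition of growth.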

In the first assay the test system is SW-620 colon. Put plainly: NCI anticancer screen, dose series, 48 h.
As for `CCN(CC)c1c(C(=O)/C=C/c2ccc(OC)cc2)c(-c2ccccc2)nn(C)c1=O`, the TGI came out at 98.4 µM.

The compound `CN1C(=Nc2ccccc2)SC1=Nc1ccccc1` came in with a TGI greater than 100 µM.

`Oc1ccccc1/C=C/c1csnn1` returned a TGI greater than 100 µM.

On to `CC(=O)CC(=O)OC1CC(C)CCC1C(C)C` (stereo unspecified), for which the TGI is greater than 100 µM.

For `CP1(=O)CCCCC1`, the TGI is greater than 100 µM.

For the compound `Cc1ccc(S(=O)(=O)OC2CSS(=O)CC2OS(=O)(=O)c2ccc(C)cc2)cc1` (stereo unspecified), the TGI is 18.9 µM.

Consider `Nc1ccnc(=O)[nH]1`, for which the TGI was greater than 100 µM.

With `COC(=O)/C(C)=C(/CCC1(C)OCCO1)O[Si](C)(C)C`, the TGI was greater than 100 µM.

In turn, `COc1ccc(Br)c(N/N=C2\CCCNC2=O)c1` had a TGI greater than 100 µM.

Compound `Cc1ccc2nc(NC(=O)C(=O)C(C#N)c3nc4ccccc4s3)sc2c1` (stereo unspecified) showed a TGI greater than 100 µM.

`CC(C)C1CC[C@@H](C)C[C@@]1(O)CC(N)=O` (stereo partly specified) gave a TGI greater than 100 µM.

On to `COc1ccc2n[se]nc2c1`, for which the TGI was greater than 100 µM.

`Cn1cc(C(=O)NCCC(=N)N)cc1NC(=O)C1=[N+](C)C=C(NC(=O)c2cccc(C(=O)NC3=CC(C(=O)Nc4cc(C(=O)NCCC(=N)N)cn4C)=[N+](C)C3)c2)C1` came in with a TGI greater than 100 µM.

A further assay has as its system ACHN renal. Put plainly: NCI anticancer screen, dose series, 48 h.
Turning to `CCN(CC)c1c(C(=O)/C=C/c2ccc(OC)cc2)c(-c2ccccc2)nn(C)c1=O`, the TGI is greater than 100 µM.

Turning to `CN1C(=Nc2ccccc2)SC1=Nc1ccccc1`, the TGI is greater than 100 µM.

For the compound `Oc1ccccc1/C=C/c1csnn1`, the TGI is greater than 100 µM.

Take `CC(=O)CC(=O)OC1CC(C)CCC1C(C)C` (stereo unspecified): the TGI is greater than 100 µM.

The compound `CP1(=O)CCCCC1` gave a TGI greater than 100 µM.

Compound `Cc1ccc(S(=O)(=O)OC2CSS(=O)CC2OS(=O)(=O)c2ccc(C)cc2)cc1` (stereo unspecified) had a TGI of 31.3 µM.

Regarding `Nc1ccnc(=O)[nH]1`, the TGI is greater than 100 µM.

In turn, `COC(=O)/C(C)=C(/CCC1(C)OCCO1)O[Si](C)(C)C` showed a TGI greater than 100 µM.

Compound `COc1ccc(Br)c(N/N=C2\CCCNC2=O)c1` yielded a TGI greater than 100 µM.

With `Cc1ccc2nc(NC(=O)C(=O)C(C#N)c3nc4ccccc4s3)sc2c1` (stereo unspecified), the TGI is greater than 100 µM.

`CC(C)C1CC[C@@H](C)C[C@@]1(O)CC(N)=O` (stereo partly specified) displayed a TGI greater than 100 µM.

For `COc1ccc2n[se]nc2c1`, the TGI was greater than 100 µM.

With `Cn1cc(C(=O)NCCC(=N)N)cc1NC(=O)C1=[N+](C)C=C(NC(=O)c2cccc(C(=O)NC3=CC(C(=O)Nc4cc(C(=O)NCCC(=N)N)cn4C)=[N+](C)C3)c2)C1`, the TGI is greater than 100 µM.

The next assay deals with SNB-19 CNS. In words: NCI anticancer screen, dose series, 48 h.
`CCN(CC)c1c(C(=O)/C=C/c2ccc(OC)cc2)c(-c2ccccc2)nn(C)c1=O` had a TGI of 45.9 µM.

On to `CN1C(=Nc2ccccc2)SC1=Nc1ccccc1`, for which the TGI is greater than 100 µM.

`Oc1ccccc1/C=C/c1csnn1` displayed a TGI greater than 100 µM.

Regarding `CC(=O)CC(=O)OC1CC(C)CCC1C(C)C` (stereo unspecified), the TGI is greater than 100 µM.

`CP1(=O)CCCCC1` registered a TGI greater than 100 µM.

The compound `Cc1ccc(S(=O)(=O)OC2CSS(=O)CC2OS(=O)(=O)c2ccc(C)cc2)cc1` (stereo unspecified) gave a TGI of 32 µM.

On to `COC(=O)/C(C)=C(/CCC1(C)OCCO1)O[Si](C)(C)C`, for which the TGI was greater than 100 µM.

On to `COc1ccc(Br)c(N/N=C2\CCCNC2=O)c1`, for which the TGI was greater than 100 µM.

`Cc1ccc2nc(NC(=O)C(=O)C(C#N)c3nc4ccccc4s3)sc2c1` (stereo unspecified) showed a TGI of 83.6 µM.

`CC(C)C1CC[C@@H](C)C[C@@]1(O)CC(N)=O` (stereo partly specified) came in with a TGI greater than 100 µM.

`COc1ccc2n[se]nc2c1` came in with a TGI greater than 100 µM.

As for `Cn1cc(C(=O)NCCC(=N)N)cc1NC(=O)C1=[N+](C)C=C(NC(=O)c2cccc(C(=O)NC3=CC(C(=O)Nc4cc(C(=O)NCCC(=N)N)cn4C)=[N+](C)C3)c2)C1`, the TGI is greater than 100 µM.

In a further assay the test system is U251 CNS. Put plainly: NCI anticancer screen, dose series, 48 h.
`CCN(CC)c1c(C(=O)/C=C/c2ccc(OC)cc2)c(-c2ccccc2)nn(C)c1=O`: the TGI worked out at 32.7 µM.

The compound `CN1C(=Nc2ccccc2)SC1=Nc1ccccc1` showed a TGI greater than 100 µM.

Consider `Oc1ccccc1/C=C/c1csnn1`, for which the TGI is greater than 100 µM.

In turn, `CC(=O)CC(=O)OC1CC(C)CCC1C(C)C` (stereo unspecified) came in with a TGI greater than 100 µM.

For the compound `CP1(=O)CCCCC1`, the TGI was greater than 100 µM.

`Cc1ccc(S(=O)(=O)OC2CSS(=O)CC2OS(=O)(=O)c2ccc(C)cc2)cc1` (stereo unspecified) showed a TGI of 28.1 µM.

In the case of `Nc1ccnc(=O)[nH]1`, the TGI is greater than 100 µM.

On to `COC(=O)/C(C)=C(/CCC1(C)OCCO1)O[Si](C)(C)C`, for which the TGI is greater than 100 µM.

On to `COc1ccc(Br)c(N/N=C2\CCCNC2=O)c1`, for which the TGI is greater than 100 µM.

Take `Cc1ccc2nc(NC(=O)C(=O)C(C#N)c3nc4ccccc4s3)sc2c1` (stereo unspecified): the TGI was greater than 100 µM.

`CC(C)C1CC[C@@H](C)C[C@@]1(O)CC(N)=O` (stereo partly specified) yielded a TGI greater than 100 µM.

`COc1ccc2n[se]nc2c1` displayed a TGI greater than 100 µM.

Regarding `Cn1cc(C(=O)NCCC(=N)N)cc1NC(=O)C1=[N+](C)C=C(NC(=O)c2cccc(C(=O)NC3=CC(C(=O)Nc4cc(C(=O)NCCC(=N)N)cn4C)=[N+](C)C3)c2)C1`, the TGI was greater than 100 µM.

The subject of the next assay is DMS 114 small cell lung. In words: NCI anticancer screen, dose series, 48 h.
In the case of `CCN(CC)c1c(C(=O)/C=C/c2ccc(OC)cc2)c(-c2ccccc2)nn(C)c1=O`, the TGI stood at 32.3 µM.

Consider `CN1C(=Nc2ccccc2)SC1=Nc1ccccc1`, for which the TGI was greater than 100 µM.

`Oc1ccccc1/C=C/c1csnn1` returned a TGI greater than 100 µM.

As to `CC(=O)CC(=O)OC1CC(C)CCC1C(C)C` (stereo unspecified), the TGI was greater than 100 µM.

Regarding `CP1(=O)CCCCC1`, the TGI was greater than 100 µM.

In the case of `Cc1ccc(S(=O)(=O)OC2CSS(=O)CC2OS(=O)(=O)c2ccc(C)cc2)cc1` (stereo unspecified), the TGI was determined as 32.2 µM.

The compound `Nc1ccnc(=O)[nH]1` gave a TGI greater than 100 µM.

`COC(=O)/C(C)=C(/CCC1(C)OCCO1)O[Si](C)(C)C`: the TGI was greater than 100 µM.

With `COc1ccc(Br)c(N/N=C2\CCCNC2=O)c1`, the TGI was greater than 100 µM.

As for `Cc1ccc2nc(NC(=O)C(=O)C(C#N)c3nc4ccccc4s3)sc2c1` (stereo unspecified), the TGI turned out to be 70.1 µM.

Consider `CC(C)C1CC[C@@H](C)C[C@@]1(O)CC(N)=O` (stereo partly specified), for which the TGI was greater than 100 µM.

`COc1ccc2n[se]nc2c1` displayed a TGI greater than 100 µM.

Take `Cn1cc(C(=O)NCCC(=N)N)cc1NC(=O)C1=[N+](C)C=C(NC(=O)c2cccc(C(=O)NC3=CC(C(=O)Nc4cc(C(=O)NCCC(=N)N)cn4C)=[N+](C)C3)c2)C1`: the TGI is greater than 100 µM.

In a further assay the test system is A498 renal. In words: NCI anticancer screen, dose series, 48 h.
With `CCN(CC)c1c(C(=O)/C=C/c2ccc(OC)cc2)c(-c2ccccc2)nn(C)c1=O`, the TGI is 46.8 µM.

For the compound `CN1C(=Nc2ccccc2)SC1=Nc1ccccc1`, the TGI is greater than 100 µM.

Compound `Oc1ccccc1/C=C/c1csnn1` showed a TGI greater than 100 µM.

On to `CC(=O)CC(=O)OC1CC(C)CCC1C(C)C` (stereo unspecified), for which the TGI was greater than 100 µM.

`Cc1ccc(S(=O)(=O)OC2CSS(=O)CC2OS(=O)(=O)c2ccc(C)cc2)cc1` (stereo unspecified) came in with a TGI of 30.1 µM.

`Nc1ccnc(=O)[nH]1` displayed a TGI greater than 100 µM.

`Cc1ccc2nc(NC(=O)C(=O)C(C#N)c3nc4ccccc4s3)sc2c1` (stereo unspecified): the TGI came to 37.8 µM.

In the case of `Cn1cc(C(=O)NCCC(=N)N)cc1NC(=O)C1=[N+](C)C=C(NC(=O)c2cccc(C(=O)NC3=CC(C(=O)Nc4cc(C(=O)NCCC(=N)N)cn4C)=[N+](C)C3)c2)C1`, the TGI was greater than 100 µM.

The next assay concerns DLD-1 colon. Put plainly: NCI anticancer screen, dose series, 48 h.
Regarding `CCN(CC)c1c(C(=O)/C=C/c2ccc(OC)cc2)c(-c2ccccc2)nn(C)c1=O`, the TGI amounted to 71.3 µM.

Consider `CN1C(=Nc2ccccc2)SC1=Nc1ccccc1`, for which the TGI is greater than 100 µM.

`Oc1ccccc1/C=C/c1csnn1` had a TGI greater than 100 µM.

On to `CC(=O)CC(=O)OC1CC(C)CCC1C(C)C` (stereo unspecified), for which the TGI is greater than 100 µM.

Regarding `CP1(=O)CCCCC1`, the TGI is greater than 100 µM.

As for `Cc1ccc(S(=O)(=O)OC2CSS(=O)CC2OS(=O)(=O)c2ccc(C)cc2)cc1` (stereo unspecified), the TGI is 23.6 µM.

The compound `Nc1ccnc(=O)[nH]1` showed a TGI greater than 100 µM.

In turn, `COC(=O)/C(C)=C(/CCC1(C)OCCO1)O[Si](C)(C)C` registered a TGI greater than 100 µM.

`COc1ccc(Br)c(N/N=C2\CCCNC2=O)c1` came in with a TGI greater than 100 µM.

`CC(C)C1CC[C@@H](C)C[C@@]1(O)CC(N)=O` (stereo partly specified): the TGI is greater than 100 µM.

As for `COc1ccc2n[se]nc2c1`, the TGI was greater than 100 µM.

In turn, `Cn1cc(C(=O)NCCC(=N)N)cc1NC(=O)C1=[N+](C)C=C(NC(=O)c2cccc(C(=O)NC3=CC(C(=O)Nc4cc(C(=O)NCCC(=N)N)cn4C)=[N+](C)C3)c2)C1` had a TGI greater than 100 µM.

For a further assay, the system named is HCT-116 colon. In words: NCI anticancer screen, dose series, 48 h.
`CN1C(=Nc2ccccc2)SC1=Nc1ccccc1` yielded a TGI greater than 100 µM.

For the compound `Oc1ccccc1/C=C/c1csnn1`, the TGI was greater than 100 µM.

The compound `CC(=O)CC(=O)OC1CC(C)CCC1C(C)C` (stereo unspecified) registered a TGI of 80.1 µM.

`CP1(=O)CCCCC1` came in with a TGI greater than 100 µM.

Consider `Cc1ccc(S(=O)(=O)OC2CSS(=O)CC2OS(=O)(=O)c2ccc(C)cc2)cc1` (stereo unspecified), for which the TGI stood at 27.1 µM.

In turn, `Nc1ccnc(=O)[nH]1` registered a TGI greater than 100 µM.

For `COC(=O)/C(C)=C(/CCC1(C)OCCO1)O[Si](C)(C)C`, the TGI was greater than 100 µM.

Compound `COc1ccc(Br)c(N/N=C2\CCCNC2=O)c1` registered a TGI greater than 100 µM.

As for `Cc1ccc2nc(NC(=O)C(=O)C(C#N)c3nc4ccccc4s3)sc2c1` (stereo unspecified), the TGI was greater than 100 µM.

Compound `CC(C)C1CC[C@@H](C)C[C@@]1(O)CC(N)=O` (stereo partly specified) returned a TGI greater than 100 µM.

In another assay the test system is OVCAR-5 ovarian. In words: NCI anticancer screen, dose series, 48 h.
Turning to `CCN(CC)c1c(C(=O)/C=C/c2ccc(OC)cc2)c(-c2ccccc2)nn(C)c1=O`, the TGI turned out to be 28 µM.

In turn, `CN1C(=Nc2ccccc2)SC1=Nc1ccccc1` had a TGI greater than 100 µM.

For the compound `Oc1ccccc1/C=C/c1csnn1`, the TGI was greater than 100 µM.

Turning to `CC(=O)CC(=O)OC1CC(C)CCC1C(C)C` (stereo unspecified), the TGI was greater than 100 µM.

For the compound `CP1(=O)CCCCC1`, the TGI was greater than 100 µM.

`Cc1ccc(S(=O)(=O)OC2CSS(=O)CC2OS(=O)(=O)c2ccc(C)cc2)cc1` (stereo unspecified) had a TGI of 32.1 µM.

The compound `Nc1ccnc(=O)[nH]1` gave a TGI greater than 100 µM.

`COC(=O)/C(C)=C(/CCC1(C)OCCO1)O[Si](C)(C)C`: the TGI is greater than 100 µM.

Consider `COc1ccc(Br)c(N/N=C2\CCCNC2=O)c1`, for which the TGI was greater than 100 µM.

`Cc1ccc2nc(NC(=O)C(=O)C(C#N)c3nc4ccccc4s3)sc2c1` (stereo unspecified) returned a TGI greater than 100 µM.

With `CC(C)C1CC[C@@H](C)C[C@@]1(O)CC(N)=O` (stereo partly specified), the TGI is greater than 100 µM.

`COc1ccc2n[se]nc2c1` had a TGI greater than 100 µM.
